How the values were obtained:
DQ8-restricted T cell = assay: Pharmacodynamics in DQ8 transgenic mice: ex vivo splenocytes stimulating a DQ8-restricted T cell to deamidated gliadin peptide; settings: 4 mg by oral gavage daily for 5 days
Excerpt: Ex vivo splenocytes were used to stimulate a DQ8-restricted T cell to a deamidated gliadin peptide.

[1] = cited from earlier work; for decarboxylation to α-methyl-dopamine in patients: Sjoerdsma et al. 1963, urine of treated patients
[2] = system: HLA-DQ8 antigen presenting cells with gliadin-responsive CD4 T cell receptor (TCR) transductant; assay: Inhibition of DQ8 antigen presentation in vitro, gliadin-responsive TCR transductant, IL-2 ELISA; type: cell-based; settings: for inhibition of gliadin-responsive TCR transductant (secreted IL-2): 4 hours with peptide and compound, then overnight with transductant; for IC50 compared between the enantiomers: gliadin-responsive TCR transductant
Protocol: (§1) Inhibition of DQ8 antigen presentation by the D- and L-enantiomers of α-methyldopa was tested and compared in vitro. HLA-DQ8 antigen presenting cells were cultured with a fixed concentration of peptide and a concentration of D- or L-α-methyldopa for 4 hours. TCR transductants were then added to each culture condition and cultured overnight. Secreted IL-2 from the TCR transductant was measured by ELISA for each condition.
(§2) In these figures, 0 represents the TCR transductant response to peptide without the addition of α-methyldopa. No antigen IL-2 responses (negative control) were very low at <2 pg/ml. Results are presented as mean+/− SEM.

[3] = system: HLA-DQ8 antigen presenting cells with insulin responsive CD4 T cell receptor (TCR) transductant; assay: Inhibition of DQ8 antigen presentation in vitro, insulin responsive TCR transductant, IL-2 ELISA; type: cell-based; settings: for inhibition of insulin responsive TCR transductant (secreted IL-2): 4 hours with peptide and compound, then overnight with transductant; for IC50 compared between the enantiomers: insulin responsive TCR transductant
Protocol: as §1, §2

[4] = Oral pharmacokinetics in HLA-DQ8 transgenic mice, plasma by HPLC-MS; type: in vivo; settings: oral gavage, 4 mg
Protocol: Separate cohorts of HLA-DQ8 transgenic mice (n=2) were gavaged with a specific dose of L- and D-α-methyldopa, followed by the collection of plasma 90 minutes later. […] Similarly, separate cohorts of mice (n=3) were gavaged with a specific enantiomer (D or L enantiomer) and dose (4 mg by gavage) of α-methyldopa followed by the collection of plasma at baseline, 1, 2, 4, 6, and 18 hours later. […] In these PK studies the Lower Limit of Quantification (LLOQ) was <2.5 ng/ml. Results are presented as mean+/− SEM.

| IC50 compared between the enantiomers [2] | IC50 compared between the enantiomers [3] | time to maximum plasma concentration (Tmax) compared with the other enantiomer [4] | SMILES | inhibition of the DQ8-restricted T cell response to deamidated gliadin peptide (DQ8-restricted T cell) | response to positive control stimulus (anti-CD3) (DQ8-restricted T cell) | absorption in humans compared with the other isomer ([1]; Au et al. 1972) | decarboxylation to α-methyl-dopamine in patients [1] | pharmacologic activity ([1]; prior art view, Du et al., Gillespie et al. 1962) | inhibition of gliadin-responsive TCR transductant (secreted IL-2) [2] | inhibition of insulin responsive TCR transductant (secreted IL-2) [3] |
| --- | --- | --- | --- | --- | --- | --- | --- | --- | --- | --- |
| statistically similar IC50 values | statistically similar IC50 values | – | C[C@@](N)(Cc1ccc(O)c(O)c1)C(=O)O [D-α-methyldopa, D-α-Methyl-3,4-dihydroxyphenylalanine] | inhibition of the T cell response is observed | not different between the groups | much less readily absorbed | did not decarboxylate | no pharmacologic activity | blocked in a dose-dependent manner | blocked in a dose-dependent manner |
| statistically similar IC50 values | statistically similar IC50 values | slightly slower | C[C@](N)(Cc1ccc(O)c(O)c1)C(=O)O [L-α-methyldopa, L-α-Methyl-3,4-dihydroxyphenylalanine, reference compound] | only for the D enantiomer | not different between the groups | – | α-methyl-dopamine did appear in the urine | – | blocked in a dose-dependent manner | blocked in a dose-dependent manner |
